From PMC4963854, “Mapping Protein–Protein Interactions of the Resistance-Related Bacterial Zeta Toxin–Epsilon Antitoxin Complex (ε2ζ2) with High Affinity Peptide Ligands Using Fluorescence Polarization” (Toxins, 2016)
Where two headings read alike, the source gives them in different places. Ends that are not written are not given here. Peptide text beside a SMILES is read from it. * marks the point of attachment. 5FAM = O=C1OC2(c3ccc(O)cc3Oc3cc(O)ccc32)c2ccc(C(=O)*)cc21

How the values were obtained:
[1] = target: T1, Epsilon protein (His6-Epsilon) (Streptococcus pyogenes, UniProt Q57231); assay: Fluorescence polarization (FP) direct binding assay of fluorescein-labeled peptides to Epsilon
T1 construct: His6 (N); made in house; host or cells: E. coli BL21 (DE3)
T1 sequence (Q57231 1-90): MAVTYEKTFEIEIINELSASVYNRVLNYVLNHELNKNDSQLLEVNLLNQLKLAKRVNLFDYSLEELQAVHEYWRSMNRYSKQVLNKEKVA
Procedure: Binding affinities of the fluorescein-labeled peptides Fluo-(I–III) with Epsilon protein were determined in a fluorescence polarization (FP) assay. For the purpose, 10 nM solutions of each fluorescein-labeled peptide containing different concentrations of Epsilon (from 5 nM to 7.5 µM) were irradiated with polarized light at the excitation wavelength of 470 nm and the polarization of the emitted light was recorded in mP at […] (see Section 4).
Figure 3 Dose-response curve for the binding of Fluo-(I–II) to the Epsilon protein. The fluorescent-labeled peptides Fluo-(I–II) at a concentration of 10 nM were treated with increasing concentrations of Epsilon (from 0.05 nM to 2.5 µM) in 10 mM HEPES assay buffer, pH 7.5, with 0.1% Tween-20. Values are plotted as the means ± standard deviation (n = 3) from three independent experiments.
For fluorescence polarization measurements, peptides were dissolved in DMSO at 10 mM and diluted in 10 mM HEPES (pH 7.5) containing 0.1% Tween-20. The assay was conducted on untreated black 384-well microtiter plates (low volume, non-binding surface, round bottom, non-sterile black polystyrene, Corning B.V. Life Sciences, Nr. 3676, Kennebunk, ME, USA) in a final volume of 10 µL, using 10 mM HEPES (pH 7.5) with 0.1% Tween-20 as a buffer. The final DMSO proportion in the assay was less than 0.1%. The measurements were performed on a SAFIRE II (Tecan) microplate reader, using an excitation wavelength of 470 nm and emission wavelength of 525 nm. The final assay mixtures contained 5 µL fluorescein-labeled peptide (furnishing a final assay concentration of 10 nM), and 5 µL of increasing amounts of Epsilon protein (final concentrations ranging from 0.05 nM to 5 µM). The negative controls comprised 5 µL fluorescein-labeled peptide (maintaining a final assay concentration of 10 nM) and 5 µL 10 mM HEPES buffer (pH 7.5) containing 0.1% Tween-20. To avoid protein aggregation, Tween-20 (0.1% final concentration) was used as a detergent in all experiments. After adding the fluorescent peptide, the plates were centrifuged (2000 min^−1, 3 min) and shaken briefly (2000 rpm for 10 min at room temperature), and polarization of the emitted fluorescence was directly recorded. In every case, the well containing only the fluorescein-labeled peptide was subtracted from the assay well as background. The polarization values (mP) were plotted as a function of the logarithm of the protein concentration. […] All of the experiments were carried out in duplicate in three independent experiments, and the results are expressed as the mean ± standard deviation (SD).

[2] = target: T1, Epsilon protein (His6-Epsilon); assay: Competitive FP binding assay: acetylated peptides displace fluorescein-labeled peptide from Epsilon; settings: unlabeled peptide 0.01-100 µM, 10 mM HEPES pH 7.5, 0.1% Tween-20, 384-well, duplicates in three independent experiments ± SD
Text: The fluorescent high-affinity peptide ligands could be the basis for an especially economic and reliable high-throughput assay, if the fluorescence polarization read-out can be used for the screening of potential ligands that are able to bind to Epsilon in a competitive binding assay. For this purpose, we utilized the unlabeled peptides Ac-Ia and Ac-IIb containing the same amino acid sequence as the initial peptides but with their N-terminus modified by the introduction of an acetyl group. The competitive binding assays were performed by using appropriate amounts of Epsilon protein based on the binding affinity, expressed in terms of the KD value, for the labeled peptides Fluo-Ia and Fluo-IIb. In both cases, the protein concentration was set to the KD value and 5-fold the KD value to study the influence of the protein concentration on the IC50-value of every acetylated peptide. Thus, the Epsilon protein (100 nM or 500 nM final concentration) was treated with Fluo-Ia or Fluo-IIb (10 nM final concentration). After incubation, each mixture was treated with different concentrations of the unlabeled peptides Ac-Ia and Ac-IIb, ranging from 0.01 to 100 µM. […] The ability to identify active compounds (hits) from a particular high-throughput screening (HTS) assay depends largely on the suitability or quality of the assay conditions used in the screening. […]
Figure 5 Competitive binding of the fluorescein-labeled peptides Fluo-Ia and Fluo-IIb to the Epsilon protein in 384-well plates. […] Fluorescence polarization was measured on a SAFIRE II (Tecan, Crailsheim, Germany) microplate reader, using an excitation wavelength of 470 nm and emission wavelength of 525 nm. […]
For the competitive binding assays, unlabeled peptides containing the same amino acid sequence as the previous one but with the N-terminal end modified by the introduction of acetyl group were used. […] The measurements were performed on a SAFIRE II microplate reader (Tecan), using an excitation wavelength of 470 nm and emission wavelength of 525 nm. […]

[3] = 10 nM fluorescein-labeled peptide titrated with Epsilon, 10 mM HEPES pH 7.5, 0.1% Tween-20, no NaCl, ex 470 nm/em 525 nm, EC50 taken as KD (Q close to 1), three independent experiments, n = 3 ± SD, SD, read-out: Binding constant KD

Compound CC(C)C[C@H](NC(=O)c1ccc2c(c1)C(=O)OC21c2ccc(O)cc2Oc2cc(O)ccc21)C(=O)N[C@@H](CCCNC(=N)N)C(=O)N[C@@H](CO)C(=O)N[C@@H](C)C(=O)N[C@@H](CCC(=O)O)C(=O)N[C@@H](Cc1ccccc1)C(=O)N[C@@H](CCC(=O)O)C(=O)N[C@@H](CCC(=O)O)C(=O)N[C@H](C(=O)N[C@@H](CCC(N)=O)C(=O)O)[C@@H](C)O [Fluo-IIa] (5FAM-LRSAEFEETQ-OH) has a Kd [1, 3] of 169 ± 16 nM.
In the case of CC(C)C[C@H](NC(=O)[C@H](CO)NC(=O)[C@@H](NC(=O)[C@H](CC(=O)O)NC(=O)CNC(=O)c1ccc2c(c1)C(=O)OC21c2ccc(O)cc2Oc2cc(O)ccc21)[C@@H](C)O)C(=O)N[C@@H](CCCNC(=N)N)C(=O)N[C@@H](CO)C(=O)N[C@@H](C)C(=O)N[C@@H](CCC(=O)O)C(=O)N[C@@H](Cc1ccccc1)C(=O)N[C@@H](CCC(=O)O)C(=O)N[C@@H](CCC(=O)O)C(=O)N[C@H](C(=O)N[C@@H](CCC(N)=O)C(=O)O)[C@@H](C)O [Fluo-IIb] (5FAM-GDTSLRSAEFEETQ-OH), the Kd [1, 3] is reported as 99.5 ± 12.2 nM.
With CC(C)C[C@H](NC(=O)[C@H](CO)NC(=O)[C@@H](NC(=O)[C@H](CC(=O)O)NC(=O)CNC(=O)[C@H](CO)NC(=O)CNC(=O)c1ccc2c(c1)C(=O)OC21c2ccc(O)cc2Oc2cc(O)ccc21)[C@@H](C)O)C(=O)N[C@@H](CCCNC(=N)N)C(=O)N[C@@H](CO)C(=O)N[C@@H](C)C(=O)N[C@@H](CCC(=O)O)C(=O)N[C@@H](Cc1ccccc1)C(=O)N[C@@H](CCC(=O)O)C(=O)N[C@@H](CCC(=O)O)C(=O)N[C@H](C(=O)N[C@@H](CCC(N)=O)C(=O)O)[C@@H](C)O [Fluo-IIc] (5FAM-GSGDTSLRSAEFEETQ-OH) the Kd [1, 3] was 134 ± 15 nM.
In the case of CC[C@H](C)[C@H](NC(=O)[C@H](CC(C)C)NC(=O)[C@H](CCC(=O)O)NC(=O)[C@H](CCC(=O)O)NC(=O)[C@H](Cc1c[nH]cn1)NC(=O)[C@H](CC(N)=O)NC(=O)[C@H](CC(=O)O)NC(=O)[C@H](CC(N)=O)NC(=O)[C@H](CC(C)C)NC(=O)c1ccc2c(c1)C(=O)OC21c2ccc(O)cc2Oc2cc(O)ccc21)C(=O)N[C@@H](CCC(N)=O)C(=O)O [Fluo-Ia] (5FAM-LNDNHEELIQ-OH), the Kd ([1]; 10 nM Fluo-Ia, 10 mM HEPES pH 7.5, 0.1% Tween-20, plus 10 mM NaCl, read-out: Binding constant in presence of 10 mM NaCl) is reported as 105 nM and the Kd [1, 3] is reported as 74.5 ± 10.5 nM.
Compound CC[C@H](C)[C@H](NC(=O)[C@H](CC(C)C)NC(=O)[C@H](CCC(=O)O)NC(=O)[C@H](CCC(=O)O)NC(=O)[C@H](Cc1c[nH]cn1)NC(=O)[C@H](CC(N)=O)NC(=O)[C@H](CC(=O)O)NC(=O)[C@H](CC(N)=O)NC(=O)[C@H](CC(C)C)NC(=O)[C@H](CCCNC(=N)N)NC(=O)[C@H](CC(N)=O)NC(=O)[C@H](CCC(=O)O)NC(=O)[C@H](Cc1ccccc1)NC(=O)c1ccc2c(c1)C(=O)OC21c2ccc(O)cc2Oc2cc(O)ccc21)C(=O)N[C@@H](CCC(N)=O)C(=O)O [Fluo-Ib] (5FAM-FENRLNDNHEELIQ-OH) has a Kd [1, 3] of 89.5 ± 13.9 nM.
With CC[C@H](C)[C@H](NC(=O)[C@H](CC(C)C)NC(=O)[C@H](CCC(=O)O)NC(=O)[C@H](CCC(=O)O)NC(=O)[C@H](Cc1c[nH]cn1)NC(=O)[C@H](CC(N)=O)NC(=O)[C@H](CC(C)C)NC(=O)[C@H](CC(N)=O)NC(=O)[C@H](CC(=O)O)NC(=O)c1ccc2c(c1)C(=O)OC21c2ccc(O)cc2Oc2cc(O)ccc21)C(=O)N[C@@H](CCC(N)=O)C(=O)O [Fluo-Ie] (5FAM-DNLNHEELIQ-OH; C-terminus assumed) the “ΔmP (dynamic range of polarization)” value ([1]; 10 nM fluorescein-labeled peptide titrated with Epsilon, 10 mM HEPES pH 7.5, 0.1% Tween-20) was 115 and the Kd [1, 3] was 175 ± 8.9 nM.
Ac-GDTSLRSAEFEETQ [Ac-IIb] was tested, and the IC50 ([2]; 500 nM Epsilon, 10 nM Fluo-IIb, read-out: IC50, competition with Fluo-IIb, 500 nM Epsilon) was 15300 ± 2500 nM.
Ac-LNDNHEELIQ [Ac-Ia] showed an IC50 ([2]; 100 nM Epsilon, 10 nM Fluo-Ia, read-out: IC50, competition with Fluo-Ia, 100 nM Epsilon) of 18600 ± 4640 nM and an IC50 ([2]; 500 nM Epsilon, 10 nM Fluo-Ia, read-out: IC50, competition with Fluo-Ia, 500 nM Epsilon) of 51800 ± 7400 nM.
